Laboratory results: US12391768B2, “Antibodies to ticagrelor and methods of use” (MEDIMMUNE LIMITED, priority 2014, dated 2025)
Changes are numbered by the printed parent chain. Where two headings read alike, the source gives them in different places.

Key:
[1] = target: TICA0072 Fab; experiment: HTRF competition binding selectivity assay, TICA0072 His-Fab; design: species or system human; settings: second series (Table 3), DMSO normalised
Experimental: (§1) Total Binding control wells were set up which contained all of the assay components above except that 5 ul assay buffer was added in place of the test selectivity compound addition. Negative Binding control wells were set up which contained all of the assay components included in the Total Binding control wells except that 5ul assay buffer was added in place of the His-Fab addition. Test compound serial titrations were either ½ or ⅓ depending on the particular experiment and top final assay compound concentrations were optimized on a compound specific basis. The concentration of biotinylated ticagrelor and His-Fab was optimized on a Fab specific basis in separate experiments. For the four Fabs investigated at the end of the lead isolation phase (TICA0010, TICA0049, TICA0053 and TICA0072) the final assay reagent concentrations used are set out in Table 1 below:
(§2) For the two Fabs investigated at the end of the lead optimization phase (TICA0162 and TICA0212) the final assay reagent concentrations used were 5nM biotinylated ticagrelor and 1 nM His Fab in both cases. […] In order to enable subsequent normalization of data to correct for any such vehicle related effects parallel titrations of DMSO alone were included in most experiments in which the final assay DMSO concentrations mirrored those of the test compound serial dilutions. At the end of the set up procedure that assay was incubated for 3hrs at RT before being read on an Envision plate reader using a standard read protocol.
(§3) The negative ratio value used in the calculation of % Delta F was derived from the Negative Binding control wells. % Delta F values were then used to calculate % Specific Binding values according to the equation below: Specific Binding (%)={(Sample Delta F−Negative Binding Delta F)/(Total Binding Delta F−Negative Binding Delta F)}×100
(§4) For standard calculations of % Specific Binding Total Binding Delta F was taken from Total Binding control wells which contained all of the aforementioned components of the assay but without inclusion of any competing test compound.
(§5) In those experiments where DMSO normalization was applied DMSO normalised % Specific Binding was calculated essentially according to the equation above except that in this case Total Binding Delta F was taken from wells containing all of the components in the Total Binding control wells as well as DMSO at a concentration equivalent to that in the relevant sample well.
(§6) In a second series of experiments further selectivity data was generated for TICA0049 and TICA0072 Fabs in which a subset of four of the twelve compounds listed in FIG. 4 were retested along with ticagrelor, TAM and TIM and several adenosine related compounds. Here, in a refinement to the earlier investigations in Table 2, experiments were designed in order to enable normalisation of percent specific binding values to correct for any non-specific vehicle related effects due to DMSO. Example plotted data from this second series of experiments is shown in FIG. 5A-F along with tabulated IC50 values in Table 3.

[2] = target: TICA0049 Fab; experiment: HTRF competition binding selectivity assay, TICA0049 His-Fab; design: species or system human
Experimental: as §1, §2, §3, §4, §5, §6

[3] = target: TICA0010 Fab; experiment: HTRF competition binding selectivity assay, TICA0010 His-Fab; design: species or system human; settings: first series (Table 2), not DMSO normalised
Experimental: as §1, §2, §3, §4, §5

[4] = target: TICA0053 Fab; experiment: HTRF competition binding selectivity assay, TICA0053 His-Fab; design: species or system human; settings: first series (Table 2), not DMSO normalised
Experimental: as §1, §2, §3, §4, §5

[5] = human, in vivo; cited from earlier work
[6] = target: TICA0162 Fab; experiment: HTRF competition binding selectivity assay, TICA0162 His-Fab; design: species or system human; settings: Table 7, DMSO normalised; 5 nM biotinylated ticagrelor, 1 nM His Fab; read-out: IC50 (uM) for inhibition of biotinylated ticagrelor binding to TICA0162 Fab
Experimental: as §1
as §2, with “protocol. […]” for “protocol.”
as §5

[7] = Equilibrium affinity by KinExA3200, ticagrelor; format: binding; settings: modifications in VL CDR3 or VH CDR3 only
Experimental: The affinity of anti-ticagrelor/TAM Fabs generated in Example 5 was determined using the KinExA3200. For the KinExA affinity measurement, beads (600 mg Azlactone beads) were first prepared by reacting them overnight with 1 mg streptavidin in 50 mM NaHCO3. Following blocking with 2 changes of Tris buffer (1M Tris pH 8.7, 10 mg/mL BSA) the streptavidin coated beads were resuspended in a total volume of 8 mL. Beads (1.33 mL, equivalent to 100 mg original dry Azlactone beads) were washed completely with PBS, then allowed to bind to approximately 2.5 μg biotin-ticagrelor in 1 mL PBS for 10 minutes with occasional agitation. […]
All assays were performed at room temperature. […] Bound antibody was then detected using DyLight649 labelled mouse anti-human Heavy and Light chain antibody. Sample volume (300-1300 μL) and injection time (90-120 s) varied with concentration, and 2 -3 reads were varied out per sample. The data were analysed using the KinExA n-Curve Analysis software. Using the Constant Partner analysis the equilibrium KD for the anti-ticagrelor Fab antibodies was determined.
As in the prior Example, Fabs were allowed to equilibrate at room temperature in the presence of either unmodified ticagrelor or TAM at concentrations from 20-fold excess. […] Bound antibody was then detected using a DyLight649 labelled mouse anti-human Heavy and Light chain detection antibody. […]

[8] = target: TICA0159 IgG binding to biotinylated ticagrelor; experiment: Second generation HTRF epitope competition assay; settings: for IC50: Fab, 16 nM TICA0159 IgG, 1 nM biotinylated ticagrelor; for Fold Improved: IC50 relative to parent TICA0072 Fab
Experimental: Purified parent TICA0072 (scFv or Fab) was used as a benchmark in all experiments such that improvements in IC50 measured with optimized variants (scFv or Fab) could be expressed as fold improvements over parent TICA0072. Total Binding Control Wells contained all assay components except that 5 ul assay buffer was added in place of the purified scFv or Fab sample. Negative Binding control wells contained all of the components of the Total Binding control wells except that 5 ul of assay buffer was added in place of the TICA0072 IgG.
In both single point HTS and multipoint IC50 profiling versions of the assay. plates were incubated for 3 hrs at RT before being read on an Envision plate reader using a standard HTRF read protocol in which samples are excited at 337 nm and time resolved fluorescence emission is measured at both 620 nm and 665 nM.
Raw 665 nm and 620 nm counts were used to calculate Delta F (%) and % Specific Binding according to the equations described earlier in Assays 1 and 4, respectively. For multipoint secondary profiling experiments IC50 values were determined using Graphpad Prism software using sigmoidal dose response (variable slope) curve fitting (4 parameter logistic equation).
This assay was used only in multipoint IC50 profiling format (as opposed to HTS format) and was performed essentially identically to the method given in Assay 5 (above) for multipoint IC50 profiling of purified Fab variants in the parent TICA0072 IgG based epitope competition assay. The only difference being that TICA0159 IgG was used in place of TICA0072 IgG at the appropriate point in the assay set up but at the same 16nM final assay concentration. In all other respects this assay was performed exactly as described above in the multipoint secondary profiling version for purified Fab.

[9] = second series (Table 3), DMSO normalised
[10] = first series (Table 2), not DMSO normalised
[11] = first series (Table 2), not DMSO normalised, read-out: IC50 (uM) for inhibition of biotinylated ticagrelor binding to TICA0049 his-Fab
[12] = second series (Table 3), DMSO normalised, read-out: IC50 in competition binding selectivity studies, TICA0049

Nc1ncnc2c1ncn2[C@@H]1O[C@H](COP(=O)(O)OP(=O)(O)OP(=O)(O)O)[C@@H](O)[C@H]1O [ATP, adenosine triphosphate]
IC50 in competition binding selectivity studies, TICA0072 [1]: trace of inhibition
IC50 in competition binding selectivity studies, TICA0049 [2, 9]: trace of inhibition

CSCCNc1nc(SCCC(F)(F)F)nc2c1ncn2[C@@H]1O[C@H](COP(=O)(O)OP(=O)(O)C(Cl)(Cl)P(=O)(O)O)[C@@H](O)[C@H]1O [Cangrelor]
IC50 (uM) for inhibition of biotinylated ticagrelor binding to TICA00l0 his-Fab [3]: competitive inhibition
IC50 ([3]; read-out: IC50 (uM) for inhibition of biotinylated ticagrelor binding to TICA00l0 his-Fab): 102 µM
IC50 (uM) for inhibition of biotinylated ticagrelor binding to TICA0049 his-Fab [2, 10]: competitive inhibition
IC50 [2, 11]: 208 µM
IC50 in competition binding selectivity studies, TICA0049 [2, 9]: significant inhibition
IC50 [2, 12]: 188 µM
IC50 (uM) for inhibition of biotinylated ticagrelor binding to TICA0053 his-Fab [4]: competitive inhibition
IC50 ([4]; read-out: IC50 (uM) for inhibition of biotinylated ticagrelor binding to TICA0053 his-Fab): 17.5 µM

CCCSc1nc(N)c2nnn(C3CC(OCCO)C(O)C3O)c2n1 (centres unmarked) [TIM]
detectability in circulation [5]: undetectable after 8 hours
fraction of the parent ticagrelor [5]: < 10%

Nc1ncnc2c1ncn2[C@@H]1O[C@H](CO)[C@@H](O)[C@H]1O [Adenosine]
IC50 in competition binding selectivity studies, TICA0072 [1]: trace of inhibition
IC50 in competition binding selectivity studies, TICA0049 [2, 9]: trace of inhibition

NS(=O)(=O)c1cc2c(cc1Cl)NC(C1CC3C=CC1C3)NS2(=O)=O (centres unmarked) [Cyclothiazide]
IC50 [6]: > 1000 µM

CCCC(=O)Nc1ncnc2c1ncn2[C@@H]1O[C@@H]2COP(=O)(O)O[C@H]2[C@H]1OC(=O)CCC [Bucladesine]
IC50 in competition binding selectivity studies, TICA0049 [2, 9]: weak inhibition
IC50 [2, 12]: 865 µM

Nc1ncnc2c1ncn2[C@@H]1O[C@H](COP(=O)(O)OP(=O)(O)O)[C@@H](O)[C@H]1O [ADP, adenosine diphosphate]
IC50 in competition binding selectivity studies, TICA0072 [1]: trace of inhibition
IC50 in competition binding selectivity studies, TICA0049 [2, 9]: trace of inhibition

CC(=O)NC[C@H]1CN(c2ccc(N3CCOCC3)c(F)c2)C(=O)O1 [Linezolid]
IC50 (uM) for inhibition of biotinylated ticagrelor binding to TICA0049 his-Fab [2, 10]: partial competitive inhibition
IC50 [2, 11]: 467 µM
IC50 in competition binding selectivity studies, TICA0049 [2, 9]: weak inhibition
IC50 [2, 12]: 902 µM

B1: TICA0152: VL CDR3 variant of TICA0072; VH SEQ ID NO:62, VL SEQ ID NO:67 (antibody, listed as Homo sapiens, V domains shown)
VH: QVQLQESGAEVKKPGSSVRVSCKASGGTFDSYSIHWVRQAPGQGLEWMGGIIPAFGTLSSAQDFQARVTISADKSTSTAYMELSGLRSEDTAVYYCARGSHLYDFWSASHPPNDALAIWGQGTLVTVSS
VL: QSVVTQPPSVSAAPGQKVTISCSGSNSDIGNNYVSWYQQLPGTAPKLLIYDNNKRPSGIPDRFSGSKSGTSATLAITGLQAGDEADYYCGTWLYDRAVGLFGGGTKVTVL
fold improvement over TICA0072 [7]: 200 fold
IC50 [8]: 0.0735 µM
Fold Improved [8]: 23.3

B2: TICA0162: VH CDR3 variant of TICA0072; VH SEQ ID NO:52, VL SEQ ID NO:57 (antibody, listed as Homo sapiens, V domains shown)
VH: B1 VH with H101F, L102D, D104Y
VL: B1 VL with L93D, Y94I, D95S, R96L, A97S, V98A
fold improvement over TICA0072 [7]: 50 fold
IC50 [8]: 0.0163 µM
Fold Improved [8]: 105.2
